Where no end group is shown, it is not given here. The star is where a group is joined. Biotin = O=C1N[C@H]2[C@H](CS[C@H]2CCCCC(=O)*)N1
B1: biotin-Arg11 (peptide)
peptide: Biotin-RRRRRRRRRRR
notes: polyarginine cell-penetrating peptide of 11 arginines; Peptides were synthesized with or without the N-terminal biotin; ELISA and SPR used the biotinylated form; also called biotinylated Arg11; polyarginine CPP; source: synthetic peptide (GenScript Biotech Corp, >80% purity)

Tests used:
[1] = test system: SERCA (SR vesicles from left ventricle of PLB knockout mice); assay: Oxalate-supported SR Ca2+ uptake and leak in left ventricular homogenates of phospholamban knockout mice; type: biochemical, mouse (phospholamban knockout); settings: 40 µmol/L CPP without cargo, 5 min, 37 °C, pH 7.0; nruns Ctr, TAT, Arg9, Arg11 = 58, 12, 17, 15
Excerpt: (§1) Ca^2+ handling was also examined in homogenates prepared from mouse left ventricle, rat soleus, and rat extensor digitorum longus (EDL) muscles using methods described by O’Brien and modified by Li et al.. Freshly excised left ventricles and muscles were weighed and homogenized in ice cold homogenization buffer (1:10 wet weight/vol, pH 7.9) containing (in mmol/L) 300 sucrose, 5 NaN3, 1 EDTA, 40 L-histidine, 40 Tris HCl, and protease inhibitors (Complete EDTA-free No 05056489001, Roche, Mannheim, Germany). Homogenization was performed with a Polytron 1200 (Kinematica AG, Luzern, Switzerland) at 25,000 rpm for 3 × 20 s, with a 20 s break between bursts. Homogenates were then aliquoted, frozen in liquid N2, and stored at −80 °C until use.
(§2) 10–20 µL of freshly thawed and vortexed homogenate was added to 250 µL of “assay” buffer, containing (in mmol/L) 165 KCl, 22 Hepes, 7.5 oxalate, 11 NaN3, 0.0055 TPEN, 4.5 MgCl2, 9 Tris HCl, and 0.002 Fura-2 salt (pH 7.0, 37 °C). […]
(§3) Ca^2+ fluxes were monitored as Fura-2 fluorescence ratio (340 nm/390 nm) using a Hidex Sense Multimodal Microplate Reader (Kem-En-Tec Nordic AS, Uppsala, Sweden). […] The fluorescence ratio was calibrated to [Ca^2+] using the following equation: [Ca^2+] = Kd × ((R − Rmin)/(Rmax − R)) × (Sf2/Sb2), where R is the 340 nm/390 nm fluorescence ratio, and Kd is the dissociation constant of Fura-2 and Ca^2+ (224 nmol/L). Rmin is the fluorescence ratio at very low [Ca^2+] and Rmax is the ratio at saturating [Ca^2+], obtained by sequentially adding 3.3 mmol/L EGTA and 4.8 mmol/L CaCl2 to the well at the end of each recording. Sf2/Sb2 is the ratio of measured fluorescence intensity at 390 nm when Fura-2 is Ca^2+-free (3.3 mmol/L EGTA) or Ca^2+-bound (4.8 mmol/L CaCl2).
(§4) Ca^2+ recordings were smoothed using TableCurve 2D (V 5.01, Systat Software Inc., Palo Alto, CA, USA) prior to analysis. After the addition of Na4ATP, the rate constant for Ca^2+ uptake (k) was calculated by fitting the uptake curve to Ca^2+ = Ca^2+0 + ae^−t×k (Sigmaplot V14.0, Systat Software Inc.). […]

[2] = test system: rat left ventricular cardiomyocytes; assay: Field-stimulated whole-cell Ca2+ transients in isolated rat cardiomyocytes; type: cell-based, rat (Wistar); settings: versus untreated Ctr, 5 µmol/L, 1 h preincubation, 1 Hz, 37 °C
Excerpt: For single cell experiments, rat left ventricular cardiomyocytes were isolated as described previously. In brief, rats were anaesthetized by inhalation of a mixture of 5% isoflurane and 95% O2. Hearts were then rapidly excised and mounted via the aorta on a Langendorff apparatus to enable retrograde perfusion with buffer containing collagenase Type II (Worthington Biochemical Corporation, Lakewood, NJ, USA). Following digestion, the heart was cut down, diced, and agitated, and isolated cardiomyocytes were then filtered, washed, and sedimented. Cells were stored in a solution containing (in mmol/L) 130 NaCl, 5.4 KCl, 25 HEPES, 0.5 MgCl2, 0.4 NaH2PO4, 22 glucose, 0.2 CaCl2 (pH 7.40, 22 °C) until use, within 6 h of isolation.
Prior to experiments, cardiomyocytes were preincubated for 1 h with 5 µmol/L of the individual CPPs added to the cell storage solution. During the last 10 min of incubation, cells were additionally loaded with fluo-4 AM (5 µmol/L, Thermo Fisher Scientific, Waltham, MA, USA) for Ca^2+ imaging. The cells were then plated on the stage of an inverted microscope and perfused with HEPES-Tyrode solution containing (in mmol/L) 140 NaCl, 0.5 MgCl2, 5.0 HEPES, 5.5 glucose, 0.4 NaH2PO4, 5.4 KCl, and 1.8 CaCl2 at pH 7.4, 37 °C. Whole-cell Ca^2+ transients were recorded by wide-field photometry, as described previously, using a D-104 microscope photometer and photomultiplier tube (Horiba Ltd., Kyoto, Japan). During field stimulation at 1 Hz, fluorescence was excited by a 475 nm light-emitting diode, and emission was collected at >510 nm.
Ca^2+ signals were analysed by first subtracting background fluorescence values from the cellular recordings. Ca^2+ transient magnitude was calculated as peak fluorescence divided by resting fluorescence (F/F0). The decay time of Ca^2+ transients was assessed using a monoexponential fit of the declining phase of the Ca^2+ transient to calculate tau (s), using Clampfit 10.4 software (Molecular Devices LLC, Sunnyvale, CA, USA).

[3] = test system: SERCA (rat EDL homogenates; SERCA1); assay: Oxalate-supported Ca2+ uptake, leak and releasable Ca2+ in rat EDL homogenates; type: biochemical, rat (Wistar); settings: 40 µmol/L, 5 min, 37 °C, pH 7.0; without (Figure 4B) and with cargo (Figure 4D)
Excerpt: as §1, with “use. […]” for “use.”
as §3, with “Sf2/Sb2 is the ratio of measured fluorescence intensity at 390 nm when Fura-2 is Ca^2+-free (3.3 mmol/L EGTA) or Ca^2+-bound (4.8 mmol/L CaCl2).” left out

[4] = test system: SERCA (rat soleus homogenates; SERCA2a); assay: Oxalate-supported Ca2+ uptake, leak and releasable Ca2+ in rat soleus homogenates; type: biochemical, rat (Wistar); settings: 40 µmol/L CPP without cargo, 5 min, 37 °C, pH 7.0; nruns Ctr, TAT, Arg9, Arg11 = 6, 5, 6, 6
Excerpt: as §1, §2, §3, §4

[5] = test system: SERCA (SR vesicles from mouse left ventricle; SERCA2a); assay: Oxalate-supported SR Ca2+ uptake and leak in mouse left ventricular homogenates (wild-type); type: biochemical, mouse (C57BL/6NT); settings: 40 µmol/L CPP without cargo, 5 min, 37 °C, pH 7.0; uptake started with Na4ATP; Fura-2 340/390; nruns Ctr, TAT, Arg9, Arg11 = 69, 14, 23, 24
Excerpt: as §1, §2, §3, §4

[6] = test system: rat SERCA2b; assay: Oxalate-supported Ca2+ uptake in homogenates of HEK293 cells transfected with SERCA2b; type: biochemical; settings: for Ca2+ uptake, SERCA2b-transfected cells, versus untreated: nruns Ctr, Arg9, Arg11 = 12, 12, 12
Procedure: (§5) 10–20 µL of freshly thawed and vortexed homogenate was added to 250 µL of “assay” buffer, containing (in mmol/L) 165 KCl, 22 Hepes, 7.5 oxalate, 11 NaN3, 0.0055 TPEN, 4.5 MgCl2, 9 Tris HCl, and 0.002 Fura-2 salt (pH 7.0, 37 °C). Each CPP was added to attain a final concentration of 40 µmol/L and incubated for 5 min at 37 °C prior to experiments.
(§6) Ca^2+ fluxes were monitored as Fura-2 fluorescence ratio (340 nm/390 nm) using a Hidex Sense Multimodal Microplate Reader (Kem-En-Tec Nordic AS, Uppsala, Sweden). Ca^2+ uptake by the vesicles was initiated by the addition of Na4ATP (2.2 mmol/L) and blocked by the application of thapsigargin (1.5 µmol/L) after 12 min [16]. SR Ca^2+ content, i.e., the “releasable Ca^2+” was estimated by adding the ryanodine receptor opener 4-Chloro-m-cresol (CmC, 5.5 mmol/L). The fluorescence ratio was calibrated to [Ca^2+] using the following equation: [Ca^2+] = Kd × ((R − Rmin)/(Rmax − R)) × (Sf2/Sb2), where R is the 340 nm/390 nm fluorescence ratio, and Kd is the dissociation constant of Fura-2 and Ca^2+ (224 nmol/L). Rmin is the fluorescence ratio at very low [Ca^2+] and Rmax is the ratio at saturating [Ca^2+], obtained by sequentially adding 3.3 mmol/L EGTA and 4.8 mmol/L CaCl2 to the well at the end of each recording. Sf2/Sb2 is the ratio of measured fluorescence intensity at 390 nm when Fura-2 is Ca^2+-free (3.3 mmol/L EGTA) or Ca^2+-bound (4.8 mmol/L CaCl2).
as §4, with “Inc.). Ca^2+ leak from the vesicles was calculated as the linear rise (slope) of the Ca^2+ signal after blockade of SERCA by thapsigargin. Leak measurements were normalized to SR content, determined as the peak [Ca^2+] after addition of CmC.” for “Inc.).”

[7] = test system: rat SERCA1; assay: Oxalate-supported Ca2+ uptake in homogenates of HEK293 cells transfected with SERCA1; type: biochemical; settings: nruns Ctr, Arg9, Arg11 = 4, 5, 5
Procedure: as §5
(§7) Ca^2+ fluxes were monitored as Fura-2 fluorescence ratio (340 nm/390 nm) using a Hidex Sense Multimodal Microplate Reader (Kem-En-Tec Nordic AS, Uppsala, Sweden). Ca^2+ uptake by the vesicles was initiated by the addition of Na4ATP (2.2 mmol/L) and blocked by the application of thapsigargin (1.5 µmol/L) after 12 min [16]. […] The fluorescence ratio was calibrated to [Ca^2+] using the following equation: [Ca^2+] = Kd × ((R − Rmin)/(Rmax − R)) × (Sf2/Sb2), where R is the 340 nm/390 nm fluorescence ratio, and Kd is the dissociation constant of Fura-2 and Ca^2+ (224 nmol/L). Rmin is the fluorescence ratio at very low [Ca^2+] and Rmax is the ratio at saturating [Ca^2+], obtained by sequentially adding 3.3 mmol/L EGTA and 4.8 mmol/L CaCl2 to the well at the end of each recording. Sf2/Sb2 is the ratio of measured fluorescence intensity at 390 nm when Fura-2 is Ca^2+-free (3.3 mmol/L EGTA) or Ca^2+-bound (4.8 mmol/L CaCl2). […]

[8] = test system: rat SERCA2a; assay: Oxalate-supported Ca2+ uptake in homogenates of HEK293 cells transfected with SERCA2a; type: biochemical; settings: for Ca2+ uptake, SERCA2a-transfected cells, versus untreated: nruns Ctr, Arg9, Arg11 = 12, 16, 16
Procedure: as §5, §6
as §4, with “Inc.). Ca^2+ leak from the vesicles was calculated as the linear rise (slope) of the Ca^2+ signal after blockade of SERCA by thapsigargin. Leak measurements were normalized to SR content, determined as the peak [Ca^2+] after addition of CmC.” for “Inc.).”

[9] = test system: rat SERCA3; assay: Oxalate-supported Ca2+ uptake in homogenates of HEK293 cells transfected with SERCA3; type: biochemical; settings: nruns Ctr, Arg9, Arg11 = 4, 5, 5
Procedure: as §5, §7

[10] = molecular target: T1, 12xHis-SERCA2(111-253) (UniProt P16615 111-253); assay: SPR; Biacore X100; biotinylated Arg11 immobilised on an SA chip at 744.3 RU; 12xHis-SERCA2(111-253) injected at 0.7–200 nM, 0.19–50 nM or 12.5–200 nM, 30 µL/minute for 180 s; dissociation 600 or 1000 s; 1 × Biacore running buffer; one-to-one Langmuir model; settings: both partners purified
T1 construct: also called recombinant SERCA2 polypeptide containing the A-domain; actuator domain of SERCA2; source: recombinant, generated by Genscript; dialysed into Biacore running buffer for SPR
T1 sequence (P16615 111-253): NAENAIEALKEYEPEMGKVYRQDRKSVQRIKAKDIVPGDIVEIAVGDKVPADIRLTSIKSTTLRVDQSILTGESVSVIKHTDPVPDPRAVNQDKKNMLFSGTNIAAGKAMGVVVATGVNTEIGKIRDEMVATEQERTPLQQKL

Molecule	Ca2+ uptake, PLB knockout, effect versus untreated control [1]	effect on Ca2+ transient decay (tau), in words [2]	Ca2+ uptake rate in EDL, effect versus untreated control [3]	Ca2+ uptake rate in soleus, effect versus untreated control [4]	Ca2+ uptake rate, effect versus untreated control [5]	Ca2+ uptake, SERCA2b-transfected cells, versus untreated [6]	Ca2+ uptake rate, SERCA1-transfected cells, versus untreated [7]	Ca2+ uptake, SERCA2a-transfected cells, versus untreated [8]	Ca2+ uptake rate, SERCA3-transfected cells, versus untreated [9]	increase in tau value for Ca2+ removal (Ca2+ transient decay) ([2]; p = 0.021, ncells Ctr 37, Arg11 31, 4 hearts)	inhibition of Ca2+ uptake compared with Arg9, SERCA2b ([6]; comparison Arg11 versus Arg9)	inhibition of Ca2+ uptake compared with Arg9, SERCA2a ([8]; comparison Arg11 versus Arg9)	Kd [10]	koff [10]	kon [10]
RKKRRQRRR [TAT, reference compound]	did not observe inhibition of SERCA2 activity	No such effects were noted	did not observe inhibition of SERCA2 activity	did not alter the rate of Ca^2+ uptake	no significant effect										
RRRRRRRRR [Arg9]	lesser but statistically significant inhibition	No such effects were noted		lesser but statistically significant inhibition	slowed Ca^2+ uptake, albeit to a lesser extent than Arg11	significantly slowed Ca^2+ uptake	Neither Arg9 nor Arg11 altered the Ca^2+ uptake rate	significantly slowed Ca^2+ uptake	Neither Arg9 nor Arg11 altered the Ca^2+ uptake rate						
RRRRRRRRRRR [Arg11]	tending to cause the most marked inhibition of Ca^2+ uptake	slowing of Ca^2+ transient decay		most marked effect	marked slowing of Ca^2+ uptake	significantly slowed Ca^2+ uptake	Neither Arg9 nor Arg11 altered the Ca^2+ uptake rate	significantly slowed Ca^2+ uptake	Neither Arg9 nor Arg11 altered the Ca^2+ uptake rate	14%	tended to be more marked than that induced by Arg9	tended to be more marked than that induced by Arg9			
B1													400 pM	6.6e-05 s⁻¹	210000 M⁻¹ s⁻¹
